Here are results for 14 compounds from patent publication US10457685B2, “[1,2,3]triazolo[4,5-D]pyrimidine derivatives with affinity for the type-2 cannabinoid receptor” (Hoffmann-La Roche Inc., priority 2016, dated 2019).

The target of test [1] is human CB2 receptor (CNR2) (Homo sapiens (Human), UniProt P34972). Description: Radioligand binding assay ([3H]-CP-55,940), membranes of HEK cells expressing human CNR2. Conditions: 2.6 nM [3H]-CP-55,940, HEK cell membranes, 1 h at 30° C. The method, then:
(§1) Radioligand Binding Assay
(§2) The affinity of the compounds of the invention for cannabinoid receptors was determined using recommended amounts of membrane preparations (PerkinElmer) of human embryonic kidney (HEK) cells expressing the human CNR1 or CNR2 receptors in conjunction with 1.5 or 2.6 nM [3H]-CP-55,940 (Perkin Elmer) as radioligand, respectively. Binding was performed in binding buffer (50 mM Tris, 5 mM MgCl2, 2.5 mM EDTA, and 0.5% (wt/vol) fatty acid free BSA, pH 7.4 for CB1 receptor and 50 mM Tris, 5 mM MgCl2, 2.5 mM EGTA, and 0.1% (wt/vol) fatty acid free BSA, pH 7.4 for CB2 receptor) in a total volume of 0.2 mL for 1 h at 30° C. shaking. The reaction was terminated by rapid filtration through microfiltration plates coated with 0.5% polyethylenimine (UniFilter GF/B filter plate; Packard). Bound radioactivity was analyzed for Ki using nonlinear regression analysis (Activity Base, ID Business Solution, Limited), with the Kd values for [^3H]CP55,940 determined from saturation experiments.

The target in test [2] is human CB1 receptor (CNR1) (Homo sapiens (Human), UniProt P21554). Nature of the test: Radioligand binding assay ([3H]-CP-55,940), membranes of HEK cells expressing human CNR1. Conditions: 1.5 nM [3H]-CP-55,940, HEK cell membranes, 1 h at 30° C. As to the method:
as §1, §2

human CB1 receptor (CNR1), sequence (P21554 whole entry): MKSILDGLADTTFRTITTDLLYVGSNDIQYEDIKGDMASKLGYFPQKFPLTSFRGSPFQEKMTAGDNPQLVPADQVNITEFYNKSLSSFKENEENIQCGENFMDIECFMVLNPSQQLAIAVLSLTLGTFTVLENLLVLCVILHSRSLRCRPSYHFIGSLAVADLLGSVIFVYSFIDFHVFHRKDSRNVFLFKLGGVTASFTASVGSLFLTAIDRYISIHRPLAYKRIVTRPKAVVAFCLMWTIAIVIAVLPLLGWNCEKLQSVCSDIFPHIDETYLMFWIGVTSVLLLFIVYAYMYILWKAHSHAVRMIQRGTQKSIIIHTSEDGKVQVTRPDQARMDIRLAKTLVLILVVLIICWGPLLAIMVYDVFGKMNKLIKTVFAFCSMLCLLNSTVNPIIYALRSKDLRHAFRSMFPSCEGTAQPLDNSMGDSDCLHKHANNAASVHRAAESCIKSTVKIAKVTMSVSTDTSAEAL
human CB2 receptor (CNR2), sequence (P34972 whole entry): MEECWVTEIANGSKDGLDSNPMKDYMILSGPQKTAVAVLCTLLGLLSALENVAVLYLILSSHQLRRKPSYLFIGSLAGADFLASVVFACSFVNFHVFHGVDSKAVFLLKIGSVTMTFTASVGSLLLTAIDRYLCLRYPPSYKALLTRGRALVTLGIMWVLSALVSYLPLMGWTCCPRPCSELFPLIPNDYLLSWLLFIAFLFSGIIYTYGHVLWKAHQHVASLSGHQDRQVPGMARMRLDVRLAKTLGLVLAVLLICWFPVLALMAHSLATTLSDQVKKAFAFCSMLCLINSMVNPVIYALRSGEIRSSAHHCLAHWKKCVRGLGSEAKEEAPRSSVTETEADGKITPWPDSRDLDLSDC

In general, Ki refers to a measure of affinity in units of concentration, obtained from inhibition or displacement. The low end stands for higher affinity, the high end for lower affinity. In the case of `O=S(=O)(F)c1ccccc1Cn1nnc2c(N3CC[C@H](O)C3)nc(C(F)(F)c3ccccc3)nc21` [Example 24, 2-[[5-[Difluoro(phenyl)methyl]-7-[(3S)-3-hydroxypyrrolidin-1-yl]triazolo[4,5-d]pyrimidin-3-yl]methyl]benzenesulfonyl fluoride], the Ki in test [1] stood at 1.13 µM; in test [2], 3.29 µM.

Consider `CC(C)(C)c1nc(N2CCC(F)(F)C2)c2nnn(Cc3ccccc3CSSCCO)c2n1` [Example 25, 2-[[2-[[5-tert-Butyl-7-(3,3-difluoropyrrolidin-1-yl)triazolo[4,5-d]pyrimidin-3-yl]methyl]phenyl]methyldisulfanyl]ethanol], for which the values for the Ki in test [1] and in test [2] were 0.009 µM and 0.211 µM, respectively.

As for `O=S(=O)(F)c1ccccc1Cn1nnc2c(N3CCC(F)(F)C3)nc(C(F)(F)c3ccccc3)nc21` [Example 26, 2-[[5-[Difluoro(phenyl)methyl]-7-(3,3-difluoropyrrolidin-1-yl)triazolo[4,5-d]pyrimidin-3-yl]methyl]benzenesulfonyl fluoride], the Ki is 0.63 µM in test [1] and above 10 µM in test [2].

`FC1(F)CCN(c2nc(C(F)(F)c3ccccc3)nc3c2nnn3Cc2ccccc2CCSSc2ccccn2)C1` [Example 27, 5-[Difluoro(phenyl)methyl]-7-(3,3-difluoropyrrolidin-1-yl)-3-[[2-[2-(pyridin-2-yldisulfanyl)ethyl]phenyl]methyl]triazolo[4,5-d]pyrimidine]: the Ki stood at 0.262 µM in test [1] and 3.04 µM in test [2].

Take `OCCSSCCc1ccccc1Cn1nnc2c(N3CCC(F)(F)C3)nc(C(F)(F)c3ccccc3)nc21` [Example 28, 2-[2-[2-[[5-[Difluoro(phenyl)methyl]-7-(3,3-difluoropyrrolidin-1-yl)triazolo[4,5-d]pyrimidin-3-yl]methyl]phenyl]ethyldisulfanyl]ethanol]: the inhibition constant (Ki) in test [1] is 0.138 µM; in test [2], 1.08 µM.

As for `CC(C)(C)c1nc(N2CCC(F)(F)C2)c2nnn(Cc3ccccc3CCSSCCO)c2n1` [Example 29, 2-[2-[2-[[5-tert-Butyl-7-(3,3-difluoropyrrolidin-1-yl)triazolo[4,5-d]pyrimidin-3-yl]methyl]phenyl]ethyldisulfanyl]ethanol], the Ki in test [1] worked out at 0.006 µM; in test [2], 0.205 µM.

Consider `CC(C)(C)c1nc(N2CCC(F)(F)C2)c2nnn(Cc3ccccc3CCS(=O)(=O)n3nnc4ccccc43)c2n1` [Example 30, 3-[[2-[2-(Benzotriazol-1-ylsulfonyl)ethyl]phenyl]methyl]-5-tert-butyl-7-(3,3-difluoropyrrolidin-1-yl)triazolo[4,5-d]pyrimidine], for which the values for the Ki in test [1] and in test [2] were 0.246 µM and above 10 µM, respectively.

Consider `CC(C)(C)c1nc(N2CCC(F)(F)C2)c2nnn(Cc3ccccc3CCS(=O)(=O)F)c2n1` [Example 31, 2-[2-[[5-tert-Butyl-7-(3,3-difluoropyrrolidin-1-yl)triazolo[4,5-d]pyrimidin-3-yl]methyl]phenyl]ethanesulfonyl fluoride], for which the Ki was 0.027 µM in test [1] and 1.36 µM in test [2].

For the compound `CC(C)(C)c1nc(N2CCC(F)(F)C2)c2nnn(Cc3ccccc3CCSSc3ccccn3)c2n1` [Example 32, 5-tert-Butyl-7-(3,3-difluoropyrrolidin-1-yl)-3-[[2-[2-(pyridin-2-yldisulfanyl)ethyl]phenyl]methyl]triazolo[4,5-d]pyrimidine], the Ki in test [1] came to 0.072 µM; in test [2], 1.86 µM.

For the compound `CC(C)(C)c1nc(N2CCC(F)(F)C2)c2nnn(Cc3ccccc3CCSSCCN)c2n1` [Example 33, 2-[2-[2-[[5-tert-Butyl-7-(3,3-difluoropyrrolidin-1-yl)triazolo[4,5-d]pyrimidin-3-yl]methyl]phenyl]ethyldisulfanyl]ethanamine], the Ki in test [1] amounted to 0.063 µM; in test [2], 0.588 µM.

On to `NCCSSCCc1ccccc1Cn1nnc2c(N3CCC(F)(F)C3)nc(C(F)(F)c3ccccc3)nc21` [Example 34, 2-[2-[2-[[5-[Difluoro(phenyl)methyl]-7-(3,3-difluoropyrrolidin-1-yl)triazolo[4,5-d]pyrimidin-3-yl]methyl]phenyl]ethyldisulfanyl]ethanamine], for which the Ki in test [1] is 0.177 µM; in test [2], 0.23 µM.

Regarding `CC(C)(C)c1nc(N2CCC(F)(F)C2)c2nnn(Cc3ccccc3CCSSCC(O)CO)c2n1` (stereo not shown) [Example 35, 3-[2-[2-[[5-tert-Butyl-7-(3,3-difluoropyrrolidin-1-yl)triazolo[4,5-d]pyrimidin-3-yl]methyl]phenyl]ethyldisulfanyl]propane-1,2-diol], the Ki in test [1] was 0.005 µM; in test [2], 0.135 µM.

`CC(C)(C)c1nc(N2CCC(F)(F)C2)c2nnn(Cc3ccccc3SSCCO)c2n1` [Example 36, 2-[[2-[[5-tert-Butyl-7-(3,3-difluoropyrrolidin-1-yl)triazolo[4,5-d]pyrimidin-3-yl]methyl]phenyl]disulfanyl]ethanol]: the Ki in test [1] was found to be 0.095 µM; in test [2] it was 0.56 µM.

Regarding `C#Cc1cccc(S(=O)(=O)F)c1Cn1nnc2c(N3CCC(F)(F)C3)nc(C(C)(C)C)nc21` [Example 38, 2-[[5-tert-Butyl-7-(3,3-difluoropyrrolidin-1-yl)triazolo[4,5-d]pyrimidin-3-yl]methyl]-3-ethynylbenzenesulfonyl fluoride], the Ki was determined as 0.001 µM in test [1] and 0.311 µM in test [2].
